Data taken from ChEMBL document CHEMBL1201862, “PubChem BioAssay data set” (2004).
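Protocol summary: plate cells (96-well), add compound at 5 concentrations, incubate 48 h, interpolate endpoints linearly. GI50: concentration for 50% inhibition of growth.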 Activity calls are given as the source filed them. Rule as the data show it: active = GI50 up to about 1.1 µM and inactive = higher.

Columns and labels:
Test in all cases: NCI-60 cell line screen, 48 h
A549 = test system: A549
CCRF-CEM = test system: CCRF-CEM
DU-145 = test system: DU-145
HCT-116 = test system: HCT-116
HCT-15 = test system: HCT-15
HOP-62 = test system: HOP-62
IGROV-1 = test system: IGROV-1
M14 = test system: M14
MDA-MB-231 = test system: MDA-MB-231
MDA-MB-435 = test system: MDA-MB-435
MDA-N = test system: MDA-N
MOLT-4 = test system: MOLT-4
NCI-H23 = test system: NCI-H23
OVCAR-3 = test system: OVCAR-3
PC-3 = test system: PC-3
SF-268 = test system: SF-268
SF-295 = test system: SF-295
SK-MEL-28 = test system: SK-MEL-28
SW-620 = test system: SW-620
UO-31 = test system: UO-31

SMILES	GI50 (A549)	GI50 (CCRF-CEM)	GI50 (DU-145)	GI50 (HCT-116)	GI50 (HCT-15)	GI50 (HOP-62)	GI50 (IGROV-1)	GI50 (M14)	GI50 (MDA-MB-231)	GI50 (MDA-MB-435)	GI50 (MDA-N)	GI50 (MOLT-4)	GI50 (NCI-H23)	GI50 (OVCAR-3)	GI50 (PC-3)	GI50 (SF-268)	GI50 (SF-295)	GI50 (SK-MEL-28)	GI50 (SW-620)	GI50 (UO-31)
C[C@H]1C(=O)O[C@@H]2CCN3CC=C(COC(=O)[C@](C)(O)[C@@]1(C)O)[C@H]23	> 100 µM (inactive)	> 100 µM (inactive)	> 100 µM (inactive)	> 100 µM (inactive)	> 100 µM	> 100 µM (inactive)	> 100 µM (inactive)	> 100 µM (inactive)	> 100 µM (inactive)	> 100 µM (inactive)	> 100 µM (inactive)	> 100 µM (inactive)	> 100 µM (inactive)	> 100 µM (inactive)	> 100 µM (inactive)	> 100 µM (inactive)	> 100 µM (inactive)	> 100 µM (inactive)	> 100 µM (inactive)	> 100 µM (inactive)
CCOC(=O)CCC(NC(=O)c1ccc(Nc2nc3cc(C(F)(F)F)ccc3nc2C(=O)OCC)cc1)C(=O)OCC (centres undefined)	8.63 µM (inactive)	> 100 µM (inactive)	78.9 µM (inactive)	6.75 µM (inactive)	29.9 µM	14 µM (inactive)	17.1 µM (inactive)	4.51 µM (inactive)	12.5 µM (inactive)	6.87 µM (inactive)	6.9 µM (inactive)	> 100 µM (inactive)	16 µM (inactive)	13.8 µM (inactive)	9.55 µM (inactive)	14.1 µM (inactive)	5.74 µM (inactive)	12.1 µM (inactive)	18.6 µM (inactive)	11.6 µM (inactive)
COC(=O)[C@@H](NC1(c2ccccc2)c2ccccc2-c2ccccc21)[C@@H](C(=O)OC)N(NC(=O)OCc1ccccc1)C(=O)OCc1ccccc1.COC(=O)[C@@H](NC1(c2ccccc2)c2ccccc2-c2ccccc21)[C@H](C(=O)OC)N(NC(=O)OCc1ccccc1)C(=O)OCc1ccccc1	> 100 µM (inactive)	> 100 µM (inactive)	> 100 µM (inactive)	> 100 µM (inactive)	> 100 µM	> 100 µM (inactive)	> 100 µM (inactive)	> 100 µM (inactive)	> 100 µM (inactive)	> 100 µM (inactive)	> 100 µM (inactive)	> 100 µM (inactive)	> 100 µM (inactive)	> 100 µM (inactive)	> 100 µM (inactive)	> 100 µM (inactive)	> 100 µM (inactive)	> 100 µM (inactive)	> 100 µM (inactive)	> 100 µM (inactive)
Cn1c2ncccc2n2c(=O)cc(O)cc12	> 100 µM (inactive)	> 100 µM (inactive)	> 100 µM (inactive)	> 100 µM (inactive)	48 µM	39.4 µM (inactive)	12.3 µM (inactive)	> 100 µM (inactive)	32.4 µM (inactive)	53.3 µM (inactive)	81.1 µM (inactive)	20.7 µM (inactive)	> 100 µM (inactive)	40.8 µM (inactive)	56.4 µM (inactive)	54.2 µM (inactive)	97.9 µM (inactive)	89.3 µM (inactive)	82.4 µM (inactive)	47.2 µM (inactive)
COC(=O)C1=COC2OC3CC1C2C(C)O3 (centres undefined)	> 100 µM (inactive)	> 100 µM (inactive)	> 100 µM (inactive)	> 100 µM (inactive)	> 100 µM	> 100 µM (inactive)	> 100 µM (inactive)	> 100 µM (inactive)	> 100 µM (inactive)	> 100 µM (inactive)	> 100 µM (inactive)	> 100 µM (inactive)	> 100 µM (inactive)	> 100 µM (inactive)	> 100 µM (inactive)	> 100 µM (inactive)	> 100 µM (inactive)	> 100 µM (inactive)	> 100 µM (inactive)	> 100 µM (inactive)
COc1cc2c3c(c4ccc(O)cc4c2cc1OC)[C@@H](O)[C@@H]1CCCN1C3	< 0.001 µM (active)	< 0.001 µM (active)	< 0.001 µM (active)	< 0.001 µM (active)	< 0.001 µM	< 0.001 µM (active)	< 0.001 µM (active)	< 0.001 µM (active)	< 0.001 µM (active)	< 0.001 µM (active)	< 0.001 µM (active)	< 0.001 µM (active)	0.0012 µM (active)	0.00122 µM (active)	0.0019 µM (active)	< 0.001 µM (active)	< 0.001 µM (active)	< 0.001 µM (active)	< 0.001 µM (active)	< 0.001 µM (active)
C=C(Nc1ccc([N+](=O)[O-])cc1[N+](=O)[O-])c1c/c(=N\NC(N)=S)c2ccccc2o1	> 100 µM (inactive)	41.9 µM (inactive)	> 100 µM (inactive)	33.7 µM (inactive)	51.9 µM	70 µM (inactive)	36.1 µM (inactive)	> 100 µM (inactive)	26.8 µM (inactive)	81.5 µM (inactive)	> 100 µM (inactive)	42.4 µM (inactive)	81.8 µM (inactive)	22.7 µM (inactive)	26.1 µM (inactive)	> 100 µM (inactive)	39.5 µM (inactive)	> 100 µM (inactive)	39.8 µM (inactive)	29.1 µM (inactive)
COc1ccc(-c2c(-c3ccccc3)c(C)nc3nc(SC)nc(SC)c23)cc1OC	1.4 µM (inactive)	4.26 µM (inactive)	15.5 µM (inactive)	6.18 µM (inactive)	8.2 µM	9.08 µM (inactive)	30 µM (inactive)	22.8 µM (inactive)	20.9 µM (inactive)	8.17 µM (inactive)	8.99 µM (inactive)	5.81 µM (inactive)	28.8 µM (inactive)	14.4 µM (inactive)	4.29 µM (inactive)	24 µM (inactive)	7.55 µM (inactive)	22.8 µM (inactive)	6.32 µM (inactive)	3.79 µM (inactive)
O=C1Nc2ccccc2/C1=N/NC(=S)Nc1ccccc1Cl	3.58 µM (inactive)	0.724 µM (active)	9.27 µM (inactive)	0.729 µM (active)	2.31 µM	11.5 µM (inactive)	3.33 µM (inactive)	1.62 µM (inactive)	11.3 µM (inactive)	10.8 µM (inactive)	20.6 µM (inactive)	1.43 µM (inactive)	8.71 µM (inactive)	2.16 µM (inactive)	5.93 µM (inactive)	0.706 µM (active)	1.29 µM (inactive)	12.2 µM (inactive)	5.9 µM (inactive)	3.32 µM (inactive)
NC(=S)NS(=O)(=O)c1ccc(Cl)cc1Cl	> 100 µM (inactive)	> 100 µM (inactive)	> 100 µM (inactive)	> 100 µM (inactive)	> 100 µM	> 100 µM (inactive)	> 100 µM (inactive)	> 100 µM (inactive)	> 100 µM (inactive)	> 100 µM (inactive)	> 100 µM (inactive)	> 100 µM (inactive)	> 100 µM (inactive)	> 100 µM (inactive)	> 100 µM (inactive)	> 100 µM (inactive)	> 100 µM (inactive)	> 100 µM (inactive)	> 100 µM (inactive)	> 100 µM (inactive)
CN1C(=O)C2C=C3CCCCC3=CC2N(C)C1=O (centres undefined)	> 100 µM (inactive)	> 100 µM (inactive)	> 100 µM (inactive)	> 100 µM (inactive)	> 100 µM	> 100 µM (inactive)	> 100 µM (inactive)	> 100 µM (inactive)	> 100 µM (inactive)	> 100 µM (inactive)	> 100 µM (inactive)	> 100 µM (inactive)	> 100 µM (inactive)	> 100 µM (inactive)	> 100 µM (inactive)	> 100 µM (inactive)	> 100 µM (inactive)	> 100 µM (inactive)	> 100 µM (inactive)	> 100 µM (inactive)
O=S(=O)(N/C(=N\O)Nc1ccc(Cl)cc1)c1ccccc1	21.2 µM (inactive)	33.9 µM (inactive)	18.5 µM (inactive)	10.7 µM (inactive)	7.66 µM	44.8 µM (inactive)	10.5 µM (inactive)	12.7 µM (inactive)	29.5 µM (inactive)	9.23 µM (inactive)	3.9 µM (inactive)	3.23 µM (inactive)	16.2 µM (inactive)	1.23 µM (inactive)	13.3 µM (inactive)	10.8 µM (inactive)	36.6 µM (inactive)	10.9 µM (inactive)	10 µM (inactive)	3.23 µM (inactive)
CN1CC(c2ccccc2)N(CCCCN2CC(c3ccccc3)N(C)CC2c2ccccc2)CC1c1ccccc1 (centres undefined)	33.4 µM (inactive)	20.9 µM (inactive)	36.2 µM (inactive)	11.9 µM (inactive)	29.2 µM	28.4 µM (inactive)	45 µM (inactive)	25.9 µM (inactive)	58.7 µM (inactive)	36.1 µM (inactive)	32.1 µM (inactive)	23.2 µM (inactive)		53.3 µM (inactive)	18.2 µM (inactive)	> 100 µM (inactive)	34.8 µM (inactive)	> 100 µM (inactive)	35.2 µM (inactive)	57.9 µM (inactive)
OCC1OC(OCC(O)C(O)C(O)C(/C=N/Nc2ccccc2)=N/Nc2ccccc2)C(O)C(O)C1O (centres undefined)	> 100 µM (inactive)	> 100 µM (inactive)	> 100 µM (inactive)	> 100 µM (inactive)	> 100 µM	> 100 µM (inactive)	5.19 µM (inactive)	> 100 µM (inactive)	> 100 µM (inactive)	> 100 µM (inactive)	> 100 µM (inactive)	> 100 µM (inactive)	> 100 µM (inactive)	> 100 µM (inactive)	> 100 µM (inactive)	26 µM (inactive)	78.9 µM (inactive)	> 100 µM (inactive)	> 100 µM (inactive)	30.4 µM (inactive)
